# From EP4559908A1, “HETEROARYL DERIVATIVE COMPOUND AND USE THEREOF” (S2CBio Inc., priority 2022, dated 2024)
# Target: T1, human ANO6 (variant 5) (Homo sapiens, UniProt Q4KMQ2)
# T1 construct: expressed in transfected cells; host or cells: Fischer rat thyroid (FRT) cells
# T1 sequence (Q4KMQ2 1-931 isoform Q4KMQ2-2): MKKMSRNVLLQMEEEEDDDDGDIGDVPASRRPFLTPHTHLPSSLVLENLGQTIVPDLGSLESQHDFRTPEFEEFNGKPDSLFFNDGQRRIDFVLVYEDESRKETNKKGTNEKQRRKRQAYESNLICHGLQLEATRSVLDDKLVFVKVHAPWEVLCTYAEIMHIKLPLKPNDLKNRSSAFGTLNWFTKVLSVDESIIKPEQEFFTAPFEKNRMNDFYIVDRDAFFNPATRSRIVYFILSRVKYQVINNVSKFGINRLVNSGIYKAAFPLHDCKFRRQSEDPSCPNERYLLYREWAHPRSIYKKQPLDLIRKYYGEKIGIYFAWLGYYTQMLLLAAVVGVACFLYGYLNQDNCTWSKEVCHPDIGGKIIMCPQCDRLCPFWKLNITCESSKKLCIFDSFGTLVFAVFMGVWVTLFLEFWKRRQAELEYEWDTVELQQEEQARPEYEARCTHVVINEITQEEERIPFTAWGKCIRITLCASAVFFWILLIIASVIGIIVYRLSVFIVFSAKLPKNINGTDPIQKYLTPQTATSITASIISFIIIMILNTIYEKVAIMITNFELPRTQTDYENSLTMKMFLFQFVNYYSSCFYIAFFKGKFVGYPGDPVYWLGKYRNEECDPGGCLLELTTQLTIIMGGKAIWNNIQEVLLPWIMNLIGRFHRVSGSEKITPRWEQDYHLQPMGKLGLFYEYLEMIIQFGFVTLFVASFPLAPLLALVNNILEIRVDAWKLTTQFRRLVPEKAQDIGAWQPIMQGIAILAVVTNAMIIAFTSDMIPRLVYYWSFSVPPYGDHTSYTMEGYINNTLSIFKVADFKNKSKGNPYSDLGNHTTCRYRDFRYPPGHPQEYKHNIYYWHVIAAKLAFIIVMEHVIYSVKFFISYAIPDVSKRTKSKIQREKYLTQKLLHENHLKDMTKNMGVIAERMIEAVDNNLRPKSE
# Test: Lact C2 assay (measuring phosphatidylserine externalization scramblase function)
# Type: cell-based
# Conditions: FRT, FRT cells expressing human ANO6 (variant 5), ionomycin 10 µM, Lact-C2-GFP fluorescence, average of three tests; for inhibition at 0.05 µM: compound 50 nM, read-out: % Inhibition 50 nM; for inhibition at 1 µM: compound 1 µM, read-out: % Inhibition 1 µM
# In short: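 Cells were pretreated 10 min with compound (50 nM, 100 nM, 1 µM; 1% DMSO), then given 10 µM ionomycin for 10 min. Surface phosphatidylserine was stained with 500 nM Lact-C2-GFP (10 min, 37 °C), fixed and imaged. Inhibition was scaled between untreated (100%) and ionomycin-alone (0%) wells.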
inhibition at 0.05 µM,inhibition at 1 µM,Structure (SMILES)
30 to 60%,> 60%,"FC(F)(F)Oc1ccc2nc(-c3cccc(Nc4ncc(-c5cccnn5)cn4)c3)[nH]c2c1 [Example 295, 5-(pyridazin-3-yl)-N-(3-(6-(trifluoromethoxy)-1H-benzo[d]imidazol-2-yl)phenyl)pyrimidin-2-amine]"
,30 to 60%,"FC(F)(F)c1ccc2nc(-c3cccc(Nc4ccc(-c5ccncn5)nn4)c3)[nH]c2c1 [Example 296, 6-(pyrimidin-4-yl)-N-(3-(6-(trifluoromethyl)-1H-benzo[d]imidazol-2-yl)phenyl)pyridazin-3-amine]"
> 60%,> 60%,"Fc1cc2nc(-c3cccc(Nc4cnc(-c5ccncn5)cn4)c3)[nH]c2cc1F [Example 297, N-(3-(5,6-difluoro-1H-benzo[d]imidazol-2-yl)phenyl)-5-(pyrimidin-4-yl)pyrazin-2-amine]"
30 to 60%,> 60%,"Fc1cc2nc(-c3cccc(Nc4cnc(-c5ccccn5)cn4)c3)[nH]c2cc1F [Example 298, N-(3-(5,6-difluoro-1H-benzo[d]imidazol-2-yl)phenyl)-5-(pyridin-2-yl)pyrazin-2-amine]"
,> 60%,"COc1ccc2nc(-c3cccc(Nc4cnc(-c5ccccn5)cn4)c3)[nH]c2c1 [Example 299, N-(3-(6-methoxy-1H-benzo[d]imidazol-2-yl)phenyl)-5-(pyridin-2-yl)pyrazin-2-amine]"
30 to 60%,> 60%,"FC(F)Oc1ccc2nc(-c3cccc(Nc4cnc(-c5ccccn5)cn4)c3)[nH]c2c1 [Example 300, N-(3-(6-(difluoromethoxy)-1H-benzo[d]imidazol-2-yl)phenyl)-5-(pyridin-2-yl) pyrazin-2-amine]"
,> 60%,"Clc1cc2[nH]c(-c3cccc(Nc4cnc(-c5ccccn5)cn4)c3)nc2cn1 [Example 301, N-(3-(6-chloro-1H-imidazo[4,5-c]pyridin-2-yl)phenyl)-5-(pyridin-2-yl)pyrazin-2-amine]"
> 60%,> 60%,"FC(F)(F)c1ccc2nc(-c3cccc(Nc4cnc(-c5ccccn5)cn4)c3)[nH]c2c1 [Example 302, 5-(pyridin-2-yl)-N-(3-(6-(trifluoromethyl)-1H-benzo[d]imidazol-2-yl)phenyl)pyrazin-2-amine]"
,> 60%,"Clc1cc2[nH]c(-c3cccc(Nc4ncc(-c5cscn5)cn4)c3)nc2cn1 [Example 303, N-(3-(6-chloro-1H-imidazo[4,5-c]pyridin-2-yl)phenyl)-5-(thiazol-4-yl)pyrimidin-2-amine]"
30 to 60%,> 60%,"FC(F)(F)c1ccc2nc(-c3cccc(Nc4ncc(-c5cscn5)cn4)c3)[nH]c2c1 [Example 304, 5-(thiazol-4-yl)-N-(3-(6-(trifluoromethyl)-1H-benzo[d]imidazol-2-yl)phenyl)pyrimidin-2-amine]"
30 to 60%,> 60%,"Fc1ccnc(-c2ccc(Nc3cccc(-c4nc5ccc(C(F)(F)F)cc5[nH]4)c3)cc2)c1 [Example 305, N-(4-(4-fluoropyridin-2-yl)phenyl)-3-(6-(trifluoromethyl)-1H-benzo[d]imidazol-2-yl)aniline]"
,30 to 60%,"FC(F)(F)c1ccc2nc(-c3ccnc(Nc4ncc(-c5ccccn5)cn4)c3)[nH]c2c1 [Example 306, 5-(pyridin-2-yl)-N-(4-(6-(trifluoromethyl)-1H-benzo[d]imidazol-2-yl)pyridin-2-yl)pyrimidin-2-amine]"
,30 to 60%,"FC(F)(F)c1ccc2nc(-c3cncc(Nc4ncc(-c5ccccn5)cn4)c3)[nH]c2c1 [Example 307, 5-(pyridin-2-yl)-N-(5-(6-(trifluoromethyl)-1H-benzo[d]imidazol-2-yl)pyridin-3-yl)pyrimidin-2-amine]"
> 60%,> 60%,"Brc1ccc2nc(-c3cccc(Nc4ccc(-c5cccnn5)cc4)c3)[nH]c2c1 [Example 308, 3-(6-bromo-1H-benzo[d]imidazol-2-yl)-N-(4-(pyridazin-3-yl)phenyl)aniline]"
> 60%,> 60%,"N#Cc1ccc(Nc2cccc(-c3nc4ccc(C(F)(F)F)cc4[nH]3)c2)nc1 [Example 314, 6-((3-(6-(trifluoromethyl)-1H-benzo[d]imidazol-2-yl)phenyl)amino)nicotinonitrile]"
,> 60%,"N#Cc1ccc(Nc2cccc(-c3nc4ccc(C(F)(F)F)cc4[nH]3)c2)cc1 [Example 315, 4-((3-(6-(trifluoromethyl)-1H-benzo[d]imidazol-2-yl)phenyl)amino)benzonitrile]"
,> 60%,"Fc1ccccc1-c1ccc(Nc2cccc(-c3nc4ccccc4[nH]3)c2)cc1 [Example 322, N-(3-(1H-benzo[d]imidazol-2-yl)phenyl)-2'-fluoro-[1,1'-biphenyl]-4-amine]"
